Data on 5 molecules can be found in patent US12496275B2, “Drug delivery methods and compositions” (Mayo Foundation for Medical Education and Research, priority 2019, dated 2025).

The conditions of data set [1]: stated, no test described; cited from earlier work.
Data set [2] can be described thus: Analysis of encapsulation efficiency and drug loading efficiency of liposomes. In kind it is physicochemical. Here is the method:
Analysis of encapsulation efficiency and drug loading efficiency: Liposome-encapsulation efficiency was measured by determining the amount of entrapped drugs. Briefly, the drug-loaded liposome sample was centrifuged in an amicon ultra centrifugal filter with a cut off size of 3 kD in order to separate the unentrapped drug. Total (Tdrug) and unentrapped drug (UEdrug) amounts were determined by measuring the absorbance at λx of respective drugs and comparing with corresponding standard curves. The encapsulated drug (Edrug) amount was calculated by subtracting the amount of unentrapped drugs (UEdrug) from total drug (Tdrug) amount. The drug-encapsulation efficiency (EE %) was expressed as the percentage of the encapsulated amount (Edrug) to the total amount (Tdrug). Drug loading efficiency was expressed as the percentage of encapsulated drug (Edrug) to the total lipid amount (Tlipid).

For another data set, the system named is AsPC-1 cells. Nature of the data set: In vitro gemcitabine sensitivity after Tet-inducible GIPC shRNA knockdown. In kind it is cell-based, human. The settings on record: AsPC-1, 0.5 μM to 50 μM, 72 h. Here is the method:
(§1) Antibodies. Antibody for β-actin and horseradish peroxidase-conjugated secondary antibodies were purchased from Santa Cruz Biotechnology. Anti-GIPC antibody was purchased from Thermo Fisher, USA. shRNA Transfection. The plasmids for Tet-on-inducible GIPC1 shRNA were purchased from Dharmacon, US. Lentivirus stocks for GIPC1 shRNA were prepared and infected into the target cells following standard procedures. After infection, 2 μg/mL of puromycin was added to the medium for antibiotic selection. For the Tet-On-inducible GIPC shRNA, 0.4 μg/mL of doxycycline was used to induce shRNA expression in the stably infected cells.
(§2) In vitro cytotoxicity assay: Approximately, 5×10^3 cells were seeded in 384-well plates. After 18-24 h, cells were treated with increasing concentrations of gemcitabine and incubated for further 72 h. At the end of the incubation, cell viability was measured using CellTiter-Glo® 2.0 Assay (Promega) as per the manufacturer's protocol. Briefly, 24 μL of reagent was added to each well. The plate was incubated at RT for 10 minutes and luminescence signals were measured using Spectramax i3x. Percentage viability is calculated as follows: Viability (%)=100×(ATreated−ABlank)/(AUntreated−ABlank).

In the next data set the test system is PANC-1 cells. The description is as above. In kind it is cell-based, human. Particulars: PANC-1, 0.5 μM to 50 μM, 72 h. Here is the method: as §1, §2
Data set [3] relates to AsPC-1 orthotopic xenografts. Briefly: Single mouse trial, GIPC-1 knockdown plus gemcitabine. In kind it is in vivo, mice. Particulars: AsPC-1, single mouse, gemcitabine 10 mg/kg. An excerpt:
(§3) In vivo tumor growth inhibition experiment: A single mouse trial (SMT) was used to assess the in vivo tumor inhibition study in combination with GIPC-1 knockdown plus gemcitabine treatment. This strategy is currently being used in ‘Avatar’ models for the development of personalized therapy for various diseases. These ‘Avatar’ models are developed by implanting patient tumor samples in mice for subsequent drug efficacy studies. […] We used the same strategy in our SMT. All procedures were performed according to the approved guidelines. For the pancreatic cancer orthotopic model, 6-8-week-old female SCID mice were obtained from in-house breeding. Approximately, 1×10^6 luciferase-labeled Tet-inducible GIPC-1 shRNA vector-transfected AsPC-1 or PANC-1 cells, resuspended in 100 μL of PBS were injected into the pancreas of each mouse. After three days of cell inoculation, GIPC-1 knockdown was induced by adding doxycycline (0.5 mg/mL) in drinking water for the remainder of the study. […] After completion of the experiment, all tumor-bearing mice were euthanized with CO2; tumors were harvested, and tumor volumes and weights were measured.

Data set [4] deals with PANC-1 orthotopic xenografts. The data set is described as above. Particulars: PANC-1, single mouse, gemcitabine 10 mg/kg. In kind it is in vivo, mice.
Description: as §3

Another data set deals with AsPC-1 tumors. Nature of the data set: Validation study, GIPC-1 knockdown plus gemcitabine, 5 mice per group. In kind it is in vivo. The settings on record: AsPC-1, 5 mice per group, gemcitabine 10 mg/kg. Here is the method:
as §3, with “This” for “In vivo tumor growth inhibition experiment: A single mouse trial (SMT) was used to assess the in vivo tumor inhibition study in combination with GIPC-1 knockdown plus gemcitabine treatment. This”

Regarding `CCc1c2c(nc3ccc(OC(=O)N4CCC(N5CCCCC5)CC4)cc13)-c1cc3c(c(=O)n1C2)COC(=O)[C@]3(O)CC` [IRT, irinotecan], the water solubility result in data set [1] is “poorly water-soluble”.

`CCC1=C[C@@H]2CN(C1)Cc1c([nH]c3ccccc13)[C@@](C(=O)OC)(c1cc3c(cc1OC)N(C)[C@H]1[C@@](O)(C(=O)OC)[C@H](OC(C)=O)[C@]4(CC)C=CCN5CC[C@]31[C@@H]54)C2` [vinorelbine]: in data set [2] (vinorelbine), the “% of Total drug loading w.r.t Total lipid” value was 3.5% and the “Encapsulation efficiencies (%)” value amounted to 23.7%. Moreover, the water solubility entry in data set [1] was “highly water soluble”.

As for `Nc1ccn([C@@H]2O[C@H](CO)[C@@H](O)C2(F)F)c(=O)n1` [gemcitabine], the “growth inhibition by gemcitabine in GIPC-depleted vs control cells” value with AsPC-1 cells is given as “steeper growth inhibition curve”; in the data set with AsPC-1 cells (listed as Gemcitabine) it was “sensitizes”; in the data set with PANC-1 cells, “steeper growth inhibition curve”; in the data set on PANC-1 cells (listed as Gemcitabine), “sensitizes”. Also, the “response of GIPC-depleted tumors to gemcitabine (tumor volume, weight)” value is listed as “increasing gemcitabine efficacy” in data set [3]; “significantly higher response” in data set [3] (listed as Gemcitabine); “increasing gemcitabine efficacy” in data set [4]; “significantly higher response” in data set [4] (listed as Gemcitabine); “increasing gemcitabine efficacy” in the data set on AsPC-1 tumors; “more or less similar results” with AsPC-1 tumors (listed as Gemcitabine).

Consider `CO[C@H]1C[C@@H]2CC[C@@H](C)[C@@](O)(O2)C(=O)C(=O)N2CCCC[C@H]2C(=O)O[C@H]([C@H](C)C[C@@H]2CC[C@@H](OCCO)[C@H](OC)C2)CC(=O)[C@H](C)/C=C(\C)[C@@H](O)[C@@H](OC)C(=O)[C@H](C)C[C@H](C)/C=C/C=C/C=C/1C` [everolimus], for which, in data set [2] (everolimus), the “% of Total drug loading w.r.t Total lipid” value is given as 7.29% and the “Encapsulation efficiencies (%)” value is reported as about 100%. Also, the water solubility result in data set [1] is reported as “water insoluble”.

As for `NC(N)=NCCC[C@H](NC(=O)c1sccc1NS(=O)(=O)c1cccc2nsnc12)C(=O)O` [EG00229], in data set [2] (EG00229), the “% of Total drug loading w.r.t Total lipid” value was determined as 2.2% and the “Encapsulation efficiencies (%)” value is listed as 30%.
